Tests used:
Format in all cases: cell-based, bovine
[1] = system: active beta-catenin (ABC); assay: Western blot of active beta-catenin (ABC) expression in corneal endothelial cells
Experimental: With reference to FIG. 5, FIG. 5 was the Western blot analysis showing the expression level of active beta-catenin (ABC) in corneal endothelial cells treated with different concentrations of Marimastat or ADAM10 (ADAM metallopeptidase domain 10) specific inhibitor GI254023X. In group 1-3, the corneal endothelial cells were incubated in the SHEM added with 100 nM, 1 uM or 10 uM of GI254023X, respectively. In group 4-6, cells were incubated in the SHEM added with 100 nM, 1 uM or 10 uM of Marimastat, respectively. In group 1-3, there was no reduction in the expression level of ABC in the presence of ADAM10 specific inhibitor, GI254023X. In group 4, ABC expression level was high despite 100 nM of Marimastat.

[2] = system: corneal endothelial cells; assay: Phenotype (cell shape) of ex vivo cultured corneal endothelial cells, immunofluorescence staining against active beta-catenin
[3] = system: corneal endothelial cells; assay: Growth / proliferation of ex vivo cultured corneal endothelial cells
Text: Y-27632 is a known growth stimulator for corneal endothelial cells that is able to increase the ex vivo cell proliferation.

SMILES: CNC(=O)[C@@H](NC(=O)[C@H](CCCc1ccccc1)[C@H](C)N(O)C=O)C(C)(C)C [GI254023X]
- expression level of active beta-catenin (ABC) ([1]; group 1-3: 100 nM, 1 uM or 10 uM in SHEM): no reduction

SMILES: CNC(=O)[C@@H](NC(=O)[C@H](CC(C)C)[C@H](O)C(=O)NO)C(C)(C)C [Marimastat]
- cell morphology of cultured corneal endothelial cells ([2]; group 2 or 4: SHEM with 10 uM MMPI (without or with 10 uM Y-27632) for 9 days): maintained hexagonal morphology
- cell growth of corneal endothelial cells ([3]; groups 2, 4 and 6: 10 uM MMPI added in the SHEM): not obviously inhibited or reduced
- expression level of active beta-catenin (ABC) ([1]; group 4: 100 nM in SHEM): high
- expression level of active beta-catenin (ABC) ([1]; more than 1 uM in SHEM (groups 5-6: 1 uM, 10 uM)): significantly reduced

SMILES: C[C@@H](N)[C@H]1CC[C@H](C(=O)Nc2ccncc2)CC1 [Y-27632]
- cell shape of cultured corneal endothelial cells ([2]; group 3 or 5: SHEM with 10 uM Y-27632 (9 days, or first 3 days only)): elongated and fibroblast-like
- proliferation of corneal endothelial cells ([3]; group 3 or 5: SHEM with 10 uM Y-27632): enhanced proliferation

Reference: patent publication US20160002596A1, “COMPOSITION FOR EX VIVO CULTURING OF A CORNEAL ENDOTHELIAL CELL AND A METHOD FOR USING THE COMPOSITION” (National Taiwan University, priority 2014, published 2016)
